The series can be described thus: Human HepG2 cell viability assay in 384 well format. It is filed as toxicity, cell-based. Further details: dose 125 nL, time 70.5 hour; concentration not given beside the values. As to conditions: HepG2 cells, read-out: Inhibition.

For the compound `Cc1nnc(NCC(c2ccco2)N(C)C)c(C#N)c1C` (centres undefined), the cytotoxicity at 70.5 h is -4.51%.
Next, `Cc1noc(C)c1C(=O)NCCN1CCN(S(C)(=O)=O)CC1`: -1.17%; `CCNC(=O)NC(=O)CNc1cc(C(=O)OC)cc(C(F)(F)F)c1`: -3.94%.
Next, `CC(Cc1c(F)cccc1F)NC(=O)CN(CC(N)=O)C(C)C` (centres undefined): -2.04%; `N#Cc1cnc(NC2CCN(C(=O)C3CC3)CC2)c(Cl)c1`: 0.703%; `CC(=O)N1CCN(c2nc3c(cnn3C(C)(C)C)c(=O)[nH]2)CC1`: -1.03%.
In the case of `CNC(=O)NC(=O)CNc1cc(C(=O)OC)cc(C(F)(F)F)c1`, the cytotoxicity at 70.5 h amounted to 1.77%.
As for `CN1CCCN(c2nc3c(cnn3C(C)(C)C)c(=O)[nH]2)CC1`, the cytotoxicity at 70.5 h was 16.5%.
Next, `CC(C)(C)n1ncc2c(=O)[nH]c(N3CCN(CCO)CC3)nc21`: -1.33%; `CC(C)C(O)CNC(=O)Nc1cccc(-c2nccs2)c1` (centres undefined): -3.11%.
Regarding `COc1ccc(CNC(Cn2cncn2)c2ccccc2)cc1O` (centres undefined), the cytotoxicity at 70.5 h was -0.077%.
Then `N#Cc1ccc(F)c(CN(CC(=O)N2CCCC2)CC2CCCO2)c1` (centres undefined), with 0.0703%; and `N#Cc1c(Cl)nsc1NCc1ccc(N2CCCC(C(N)=O)C2)cc1` (centres undefined), with -2.18%.
Then `Cc1cn2c(CN(C)C(=O)c3nccnc3N)c(C)nc2s1`, with 0.596%; and `COc1ccccc1CNC(Cn1cncn1)c1ccccc1` (centres undefined), with -2.53%.
In the case of `Cc1ccoc1C(=O)N1CCOC2(CCCC2)C1`, the cytotoxicity at 70.5 h is -2.84%.
Next, `COc1cc(C(C)NCc2cscn2)ccc1SC(F)F` (centres undefined): 30.9%.
Next, `CCC1CCCCN1CCc1ccncc1` (centres undefined): 29.9%.
As to `CCC(=O)NCc1ccccc1Cn1ccnc1`, the cytotoxicity at 70.5 h is -2.6%.
Then `NC(=O)C1CCN(C(=O)NCc2ccccc2Cn2ccnc2)CC1`, with -6.43%; and `O=C(NCc1ccccc1Cn1ccnc1)N1CCSCC1`, with -6.06%; and `COc1cc(C(C)=O)ccc1OCC(=O)N(Cc1ccsc1)C1CC1`, with -12%.
Consider `COCCN1CCC(NC(=O)Nc2cccc(F)c2)C1` (centres undefined), for which the cytotoxicity at 70.5 h was -0.696%.
Consider `O=C(NCCc1ccn(-c2ccc(F)cc2)n1)C1CCCOC1` (centres undefined), for which the cytotoxicity at 70.5 h is -1.01%.
For `Cc1cc(Nc2ccc3c(c2)CC(=O)N3)nc(C(C)C)n1`, the cytotoxicity at 70.5 h was -6.82%.
Turning to `Cc1cc(Nc2ccc3c(c2)CC(=O)N3)nc(C2CC2)n1`, the cytotoxicity at 70.5 h is -9.05%.
Regarding `CC1CN(C(=O)NCc2ccn(C)c2)CCN1CC(F)(F)F` (centres undefined), the cytotoxicity at 70.5 h came to 32.3%.
Next, `COc1ccc(OC)c(CCNC(=O)CCC2CCCO2)c1` (centres undefined): -10%; `COCCN1CCC(NC(=O)NCC2(c3ccccc3)CC2)C1` (centres undefined): -9.2%.
Next, `COc1cc(C(C)=O)ccc1OCC(=O)N(CC(C)C#N)C1CC1` (centres undefined): -7.18%.
`Cc1cc(C2CCCN(Cc3ncc(C)o3)C2)n[nH]1` (centres undefined): the cytotoxicity at 70.5 h was -10.2%.
With `c1cc(CCN2CCCC2CN2CCCCC2)ccn1` (centres undefined), the cytotoxicity at 70.5 h was determined as 25.4%.
Then `CCc1ncc(C(=O)N2CCOCC2CC(=O)c2ccccc2)s1` (centres undefined), with -5.53%; and `O=C(c1cnc(NCC2CCCO2)c(Cl)c1)N1CCOCC1` (centres undefined), with -9.69%; and `Cc1cnn(CCNCc2cc(-c3ccccc3)no2)c1`, with 7.59%.
Then `CC(C1CC1)N(C)Cc1nnc(-c2ccco2)o1` (centres undefined), with 1.08%; and `CSc1ccc(C(C)NC(=O)c2cc(C)on2)cc1` (centres undefined), with -4.63%.
Consider `Cc1cc(C(=O)NC2CCN(c3ncccc3C#N)CC2)on1`, for which the cytotoxicity at 70.5 h was -6.25%.
As for `CCC1CN(C(=O)Cc2coc(-c3ccccc3)n2)CCO1` (centres undefined), the cytotoxicity at 70.5 h is -3.32%.
Then `Cc1nc2cc(=O)[nH]n2c(C)c1CC(=O)Nc1cnn(C)c1`, with 0.718%; and `CC(C)CN(Cc1nnc(-c2ccco2)o1)CC(C)C`, with 2.87%; and `CCOC(=O)c1nnc2ccccc2c1N1CCN(CC)CC1`, with -7.65%.
Next, `Cc1cn2c(n1)CCC(NS(=O)(=O)c1sc(C)nc1C)C2` (centres undefined): 3.5%; `CC1CCC(O)(Cn2ncnc2-c2cccc(C#N)c2)CC1` (centres undefined): -5.94%.
`CC1CCCN(Cc2ccc(CNC(=O)NCc3ccon3)cc2)C1` (centres undefined): the cytotoxicity at 70.5 h came out at 2.37%.
Next, `COc1cccc(CN2CCCC2c2ccc[nH]2)c1` (centres undefined): 0.927%; `CN(Cc1ccsc1)C(=O)Cn1c(CS(C)(=O)=O)nc2ccccc21`: -1.3%.
In the case of `COCCN1CCCN(C(=O)c2scnc2C)CC1`, the cytotoxicity at 70.5 h was -3.53%.
Next, `Cc1ccc(C(=O)N(C)Cc2csc(C)n2)c(=O)[nH]1`: 1.68%; `Cc1ccc(C(=O)N(C)Cc2ccc(Br)o2)c(=O)[nH]1`: -2.83%.
Then `CC(C)N(C)CC(=O)NCC(Cc1ccc(F)cc1)C(N)=O` (centres undefined), with 1.22%; and `CCC(CC)C(=O)NCCC(=O)N1CCN(c2ccccn2)CC1`, with 2.35%.
Then `NC(=O)C(CNC(=O)CCc1ccsc1)Cc1ccc(F)cc1` (centres undefined), with 21%; and `Cc1ccc(C(=O)N(C)Cc2csc(Br)c2)c(=O)[nH]1`, with 1.57%.
For `CCn1cnnc1C1CCN(C(=O)c2cnn(C(C)(C)C)c2)CC1`, the cytotoxicity at 70.5 h is -5.89%.
On to `CSC(C)C(=O)NCCC(=O)N1CCN(c2ccccn2)CC1` (centres undefined), for which the cytotoxicity at 70.5 h is -3.28%.
Next, `Cc1ccc(CC(=O)NCC(Cc2ccc(F)cc2)C(N)=O)cn1` (centres undefined): -0.982%; `CC(C)c1cc(C(=O)N2CCOCC2CC(=O)c2ccco2)nn1C` (centres undefined): -0.209%; `Cc1ccc(NCCNC(=O)c2cc(CC(C)C)n[nH]2)nn1`: 4.32%.
Then `CCN1CCN(C(=O)c2scnc2C)CC1`, with 18.9%; and `Cc1ncsc1C(=O)N1CCN(CCC(C)C)CC1`, with -6.29%.
On to `COCCOCC(=O)Nc1ccccc1F`, for which the cytotoxicity at 70.5 h was -6.23%.
Consider `COCCCN(CCOC)C(=O)Nc1ccc(Br)cc1`, for which the cytotoxicity at 70.5 h is -7.21%.
Turning to `CN(CCS(C)(=O)=O)C1CCCN(Cc2noc(C3CC3)n2)C1` (centres undefined), the cytotoxicity at 70.5 h came to 17.9%.
Turning to `Cc1cccc(NC(=O)c2sc(C)nc2C)n1`, the cytotoxicity at 70.5 h was -11.8%.
For the compound `CCc1noc(C(C)N2CCN(CC(=O)N3CCOCC3)CC2)n1` (centres undefined), the cytotoxicity at 70.5 h was -4.7%.
For `Cc1ccc(CNC2CCc3nc(C(C)C)nn3C2)o1` (centres undefined), the cytotoxicity at 70.5 h was -4.86%.
In the case of `CCn1cnnc1C1CCN(C(=O)c2ccnc(N(C)C)c2)CC1`, the cytotoxicity at 70.5 h was -8.14%.
Then `O=C(CN1CCCC1Cn1cncn1)Nc1nncs1` (centres undefined), with 14.3%; and `Cc1nc(C)n(CC2CCCN2CC(=O)Nc2cccnc2)n1` (centres undefined), with -0.954%.
Take `O=C(CN1CCCC(Cn2cncn2)C1)Nc1cccnc1` (centres undefined): the cytotoxicity at 70.5 h came out at 0.545%.
Then `Cc1ccc(NC(=O)CNc2ccccc2C(N)=O)c(C)c1`, with 2.06%; and `CCOc1ncccc1NC(=O)c1ccc(C(C)=O)s1`, with -14.4%; and `CCOc1ncccc1NC(=O)c1cccs1`, with -10.3%.
Take `CC(C)NC(=O)c1nnn(-c2ccc(F)cc2)c1C1CC1`: the cytotoxicity at 70.5 h is -4.05%.
Next, `Cc1c(C(=O)NC(C)C)nnn1-c1cccc(C(F)(F)F)c1`: -4.53%; `CNC(=O)COc1ccc(CNCc2cc(F)ccc2F)cc1`: -2.81%; `CC(C)CN1CCC(NC(=O)c2ccc(F)cc2F)CC1`: 0.0411%.
Then `CN(Cc1cnn(C)c1)C(=O)NCC1CCS(=O)(=O)C1` (centres undefined), with -4.43%.
Turning to `CCc1nnc2n1CCN(C(=O)c1ccc3cc[nH]c3c1)C2`, the cytotoxicity at 70.5 h is -4.35%.
Next, `N#CCCCOc1cccnc1NC(=O)CC1CCCCC1`: 39.8%.
For the compound `CC(=O)NCCNC(=O)c1cccc(Cn2nc(C)cc2C)c1`, the cytotoxicity at 70.5 h was -1.57%.
With `Cc1nc(-c2ccsc2)ccc1C(=O)N(C)CC(F)(F)F`, the cytotoxicity at 70.5 h was -11.2%.
Then `N#CCCCOc1cccnc1NC(=O)Cc1ccccc1F`, with 0.586%.
Consider `CCOc1ccc(C2CCCN2Cc2nnnn2C2CC2)cc1` (centres undefined), for which the cytotoxicity at 70.5 h was determined as 0.0309%.
Take `COc1cccc(C2CCCN2Cc2nnnn2C2CC2)c1` (centres undefined): the cytotoxicity at 70.5 h was -3.76%.
Consider `Cc1cnn(CC(C)NCc2nc(-c3ccccn3)no2)c1` (centres undefined), for which the cytotoxicity at 70.5 h is -7.46%.
For the compound `COc1ccc(CNCCc2cc(F)cc3c2OCOC3)c(OC)c1`, the cytotoxicity at 70.5 h worked out at 25.5%.
Take `O=C(CN1CCCC1Cn1cncn1)Nc1ccc(Cl)cn1` (centres undefined): the cytotoxicity at 70.5 h is -3.38%.
Turning to `Cc1cnn(CC2CCCCN2CC(=O)Nc2cccnc2)c1` (centres undefined), the cytotoxicity at 70.5 h came to 0.635%.
As for `CCc1cnc(CN(C)C2CCN(CC3CCN(C(C)=O)CC3)C2)o1` (centres undefined), the cytotoxicity at 70.5 h stood at 10%.
Next, `COc1ccc(CNC(=O)NC(C)(CO)C2CC2)c(C(F)(F)F)c1` (centres undefined): 0.673%.
Next, `CN(Cc1noc(C2CC2)n1)C1CCN(Cc2nc(C3CC3)no2)C1` (centres undefined): 0.524%; `Cc1n[nH]c(C2CN(C(=O)CCCn3cccn3)CCO2)n1` (centres undefined): -2.71%.
Then `CCc1cnc(CN(C)C2CCN(CC3CCC3)C2)o1` (centres undefined), with 8.96%; and `N#CC1(C(=O)NCc2ccc(F)cc2)CCCC1`, with 3.1%; and `CN(C)C(CNC(=O)c1cccc(C(N)=O)c1)c1ccccc1Cl` (centres undefined), with 3.17%.
In the case of `CC(CN1CCOCC1)NC(=O)c1cc(Cl)c2c(c1)OCO2` (centres undefined), the cytotoxicity at 70.5 h amounted to 2.56%.
Then `COc1ccc(NC(=O)N(CCO)Cc2ccsc2)cc1`, with -3.63%; and `COc1ccccc1NC(=O)N(CCO)Cc1ccsc1`, with 5.1%; and `CC(C)c1ncncc1C(=O)NCCN1CCOCC1`, with 1.2%.
Regarding `CC(C)c1ncncc1C(=O)NCCN1CCCC1`, the cytotoxicity at 70.5 h came to 5.71%.
Turning to `CC(C)(C(=O)NCC(=O)NC1CC1)c1ccccc1F`, the cytotoxicity at 70.5 h came to 2.62%.
Turning to `CC(C)(CNC(=O)C(C)(C)c1ccccc1F)C(N)=O`, the cytotoxicity at 70.5 h came out at 2.08%.

Values taken from ChEMBL document CHEMBL3507680, “University of Dundee, Gates Library screen for HepG2 cell viability”.
